# EP4722203A1, “3,4-DIHYDROPHTHALAZIN-1(2H)-ONE DERIVATIVE, AND PREPARATION METHOD THEREFOR AND USE THEREOF” (Academy of Military Medical Sciences, priority 2023, dated 2024)
# Legend:
# [1] = tested on: human multiple myeloma NCI-H929 xenograft tumors; experiment: In vivo antitumor activity against NCI-H929 transplanted tumors; parameters: species or system NOD/SCID mice; conditions: QD; for growth of NCI-H929 transplanted tumors (in words): 3 mg/kg and 10 mg/kg; for Tumor inhibition rate TGI (%) / Average volume (mm^3) (Day 10) / Initial volume (mm^3): oral gavage; for Tumor inhibition rate TGI (%): 10 consecutive days; for Initial volume (mm^3): baseline
# Experimental: In this example, the human multiple myeloma NCI-H929 cell line was used as the cell model. The inhibitory effects of compounds on the growth of NOD/SCID mouse transplanted tumors of NCI-H929 tumor cells were determined. The evaluation methods and results are described below.
# Human multiple myeloma NCI-H929 cells were routinely cultured in RPMI1640 containing 10% fetal bovine serum at 37°C in a 5% CO2 incubator. After three passages in vitro, when the cells reached over 80% confluence and the required confluence rate, the cells were digested and harvested. After washing with PBS, the cells were counted and the cell concentration was adjusted to approximately 5 × 10^7 cells/mL. The cells were then placed in 4 mL centrifuge tubes on ice for later use.
# Female NOD/SCID mice aged 4-5 weeks were selected and subcutaneously inoculated with NCI-H929 cells ectopically. The mice were held in a lateral position, the forelimb axilla was disinfected with 75% alcohol, and 100 µL of the cell suspension was injected subcutaneously into the axilla using a 1 mL syringe ([…]/100 µL).
# After the tumors grew to 90-150 mm^3, the animals were randomly divided into groups, 8 mice in each group, and administered according to different administration methods as follows: • Model control group: Administered with the same volume of Vehicle (DMSO: 0.5% sodium carboxymethyl cellulose: distilled water = 1:1:8) daily by gavage; • Control drug group 1: administered with pomalidomide solution at 10 mg/kg (mouse body weight) daily by gavage; • Control drug group 2: administered with CC-220 solution at 3 mg/kg (mouse body weight) daily by gavage; • Control drug group 3: administered with CC-220 solution at 10 mg/kg (mouse body weight) daily by gavage; • Experimental compound group 4: administered with compound I-4 solution at 3 mg/kg (mouse body weight) daily by gavage; • Experimental compound group 5: administered with compound I-4 solution at 10 mg/kg (mouse body weight) daily by gavage; • Experimental compound group 6: administered with compound I-8 solution at 3 mg/kg (mouse body weight) daily by gavage; • Experimental compound group 7: administered with compound I-8 solution at 10 mg/kg (mouse body weight) daily by gavage;
# The route of administration was oral gavage, and the administration frequency was once daily, for 10 consecutive days. The first day of administration was defined as Day 1 of the experiment. Tumor volume changes in mice were measured and recorded every two days. Tumor volume was measured using a vernier caliper, in which the major axis (a) and minor axis (b) of the tumor were measured, and the tumor volume was calculated as tumor volume V (mm^3) = a x b^2/2. After the experiment, the mice were dissected and the tumor weight was measured. The data were entered and statistically analyzed using GraphPad Prism 6 software. The data are expressed as mean ± SEM (Standard Error of Mean), and one-way ANOVA was used. P ≤ 0.05 was considered statistically significant.
# [2] = tested on: U937 cells; experiment: Antiproliferative activity, CCK-8 assay; format: cell-based; conditions: Homo sapiens, U-937; 144 hours incubation, CCK-8, absorbance at 450 nm
# Experimental: (§1) The cell models used in this example were human hematologic tumor cells, including NCI-H929, RPMI-8226, MV-4-11, U937 and WSU-DLCL-2. Some of the compounds of the present invention were selected to determine their inhibitory activity against the proliferation of NCI-H929, RPMI-8226, MV-4-11, U937, and WSU-DLCL-2 cells.
# (§2) • ① The selected compounds were dissolved in DMSO to prepare 10 mM stock solutions. Compounds used within three months should be stored at room temperature in a desiccator; others could be stored at -20°C for long-term storage. • ② The above stock solutions and the positive reference compound pomalidomide were diluted with DMSO. Their initial concentrations were 10 µM. In the experiments of NCI-H929 and RPMI-8226 cells, 3-fold serial dilution with 11 concentration points was performed, with the lowest concentration of 0.00047 µM. The resulting solutions were shaken on a shaker for 5 minutes.
# (§3) • ① The NCI-H929, RPMI-8226, MV-4-11, U937, and WSU-DLCL-2 cells in logarithmic growth phase were inoculated in a 96-well plate, 20,000 to 30,000 cells per well, and the plate was pre-cultured for 24 hours in an incubator (at 37°C and 5% CO2). • ② The culture medium in the plate was replaced, and the compounds and the positive control with corresponding concentrations were added to the plated at a volume of 50 µl. • ③ The plate was incubated for 144 hours in an incubator, then 15 µl of CCK-8 solution was added to each well, and incubated in the incubator for another 1-4 hours. • ④ The absorbance at 450 nm was measured using a microplate reader.
# (§4) • ① Calculating % Inhibition: [formula] • ② Calculating IC50 value of compound and plotting dose-response curve: The IC50 value was calculated by fitting the % Inhibition and the logarithm of compound concentration to a nonlinear regression (dose response-variable slope) by using GraphPad 6.0. • Y = Bottom + (Top - Bottom) / (1 + 10^((LogIC50 - X) * HillSlope)) • X: log of inhibitor concentration; Y: % Inhibition.
# (§5) After calculating % Inhibition, a dose-response curve was plotted with the logarithm of the test compound concentration as the x-axis and the average cell viability as the y-axis, and the IC50 value was obtained by fitting.
# [3] = tested on: WSU-DLCL-2 cells; experiment: Antiproliferative activity, CCK-8 assay; format: cell-based; conditions: Homo sapiens, WSUDLCL2; 144 hours incubation, CCK-8, absorbance at 450 nm
# Experimental: as §1, §2, §3, §4, §5
# [4] = tested on: MV-4-11 cells; experiment: Antiproliferative activity, CCK-8 assay; format: cell-based; conditions: Homo sapiens, MV4-11; 144 hours incubation, CCK-8, absorbance at 450 nm
# Experimental: as §1, §2, §3, §4, §5
# [5] = tested on: NCI-H929 cells; experiment: Antiproliferative activity, CCK-8 assay; format: cell-based; conditions: Homo sapiens, 144 hours incubation, CCK-8, absorbance at 450 nm, read-out: IC50 (µM) H-929
# Experimental: as §1, §2, §3, §4, §5
IC50 [2],IC50 [4],IC50 [5],SMILES,growth of NCI-H929 transplanted tumors (in words) [1],Tumor inhibition rate TGI (%) ([1]; 3 mg/kg),Average volume (mm^3) (Day 10) ([1]; 3 mg/kg),Initial volume (mm^3) ([1]; 3 mg/kg),Tumor inhibition rate TGI (%) ([1]; 10 mg/kg),Average volume (mm^3) (Day 10) ([1]; 10 mg/kg),Initial volume (mm^3) ([1]; 10 mg/kg),IC50 [3]
0.0088 µM,0.0058 µM,0.0039 µM,CN1Cc2c(NCc3ccc(CN4CCN(c5ccc(C#N)c(F)c5)CC4)cc3)cccc2C(=O)N1C1CCC(=O)NC1=O (centres unmarked) [I-8],significantly inhibited the growth,84.25%,500.1 mm^3,193.5 mm^3,100.72%,197.3 mm^3,211.3 mm^3,0.017 µM
0.31 µM,0.183 µM,0.116 µM,"CN1Cc2c(N)cccc2C(=O)N1C1CCC(=O)NC1=O (centres unmarked) [I-4, 3-(5-amino-3-methyl-1-oxo-3,4-dihydrophthalazin-2(1H)-yl)piperidin-2,6-dione]",significantly inhibited the growth,66.53%,843.1 mm^3,191.6 mm^3,92.82%,344.5 mm^3,204.8 mm^3,1.21 µM
2.53 µM,> 10 µM,3.91 µM,"Nc1cccc2c1C(=O)N(C1CCC(=O)NC1=O)C2=O (centres unmarked) [Pomalidomide, reference compound]",,,,,80.09%,573.1 mm^3,185.6 mm^3,> 10 µM
